SMILES strings stand for the structures. Read-outs that look alike come from different tables or passages of the source.

What is called ED50 is the midpoint of the dose-response relation.

The assay concerns acetylcholine-induced abdominal constriction. In words: prevention of acetylcholine-induced abdominal constriction in mice (analgesic activity). The class given is in vivo, mice (male CD1). The following applies: for ED50: Mus musculus, po, 0.5 h; for analgesia: 30 min. Here is the method:
Male CD1 mice (weighing from 18-24 g) were utilized in determining the analgesic effects associated with the compositions of the invention. The mice were all dosed orally with tramadol hydrochloride (calculated as the base), which was completely dissolved in distilled water, and acetaminophen (calculated as the base), which was completely dissolved in distilled water or in distilled water containing 2% by volume of Tween 80 containing 100% polysorbate 80. The dosing volume was 10 mL/kg.
The procedure used in detecting and comparing the analgesic activity of different classes of analgesia drugs for which there is a good correlation with human efficacy is the prevention of acetylcholine-induced abdominal constriction in mice (H. Collier et al., Br. J. Pharmacol., 32, 295 (1968)).
Mice, intubated with various doses of tramadol hydrochloride alone, acetaminophen alone, combined doses of tramadol hydrochloride and acetaminophen, or vehicle such as distilled water, or distilled water containing 2% by volume of Tween 80, were injected intraperitoneally with a challenge dose of acetylcholine bromide. The acetylcholine was completely dissolved in distilled water at a concentration of […] and injected at the rate of 0.20 mL/20 g. For scoring purposes an “abdominal constriction” was defined as a contraction of the abdominal musculature accompanied by arching of the back and extension of the limbs. The mice were observed 10 minutes for the presence or absence of the abdominal constriction response beginning immediately after receiving the acetylcholine dose, which was 30 minutes after receiving the oral administration of tramadol hydrochloride, acetaminophen, combined doses of tramadol hydrochloride and acetaminophen, or vehicle. Each mouse was used only once.
The analysis of possible superadditivity for the compositions at each fixed ratio was determined as disclosed by R. J. Tallarida et al., Life Sci., 45, 947 (1989). This procedure involved the determination of the total amount in the mixture that is required to produce a specified level of effect, such as 50% (ED50mix), and the corresponding total amount that would be expected under simple additivity (ED50add). Where it was established that ED50mix<ED50add for a specific fixed-ratio, then that composition ratio was superadditive. Both the quantities ED50mix and ED50add were random variables; ED50mix was estimated from the dose-response curve for a specific fixed-ratio; ED50add was obtained by combining the ED50 estimates for the two drugs under additivity. ED50mix was then compared to ED50add via a Student's t-test.
The interaction between tramadol and acetaminophen was determined at precise dosage ratios of tramadol hydrochloride and acetaminophen. Multiple (typically 4-6) coded doses of each selected combination were studied for analgesic effectiveness after 30 minutes using an experimental design which permitted the complete randomization of the separate dosage forms tested.
In FIG. 1, the diagonal line joining the ED50 values of the two drugs given separately represents the simple additivity of effects at different component ratios. The dotted lines adjacent to the diagonal line define the 95% confidence interval. ED50 values falling under the curve (between the line and the origin) indicate superadditivity, i.e., unexpected enhancement of effects. The diagonal dashed lines radiating from the origin represent the dose ratios of APAP to tramadol hydrochloride used in mice receiving the combined drug dosages. The bars through the ED50 points for the tramadol and APAP composition represent the 95% confidence intervals of the ED50 value.

For the compound `COc1cccc([C@@]2(O)CCCC[C@@H]2CN(C)C)c1` (racemic) [tramadol only, (1RS, 2RS)-[(dimethylamino)-methyl]-1-(3-methoxy-phenyl)cyclohexanol], the ED50 (read-out: ED50 30 min (95% CI's) Tramadol) was determined as 5.5 mg/kg. Moreover, the analgesia reads like this: (dose Tramadol 2 + APAP 0 mg/kg, p.o.) 3/15; (dose Tramadol 3 + APAP 0 mg/kg, p.o.) 4/15; (dose Tramadol 4 + APAP 0 mg/kg, p.o.) 14/45; (dose Tramadol 6 + APAP 0 mg/kg, p.o.) 20/45; (dose Tramadol 8 + APAP 0 mg/kg, p.o.) 40/60; (dose Tramadol 10 + APAP 0 mg/kg, p.o.) 15/15. Also, the analgesia (dose Tramadol 16 + APAP 0 mg/kg, p.o.) is reported as 14/15.

For `CC(=O)Nc1ccc(O)cc1` [APAP only, acetaminophen], the ED50 (APAP component of the ED50, p.o., 30 min after dosing, read-out: ED50 30 min (95% CI's) APAP) was 164 mg/kg. Moreover, the analgesia (dose Tramadol 0 + APAP 30 mg/kg, p.o.) is 2/15; the analgesia (dose Tramadol 0 + APAP 40 mg/kg, p.o.) is reported as 12/43; the analgesia (dose Tramadol 0 + APAP 50 mg/kg, p.o.) is listed as 1/15; the analgesia (dose Tramadol 0 + APAP 60 mg/kg, p.o.) is listed as 8/30; the analgesia (dose Tramadol 0 + APAP 80 mg/kg, p.o.) is 23/60; the analgesia (dose Tramadol 0 + APAP 100 mg/kg, p.o.) is 13/30. Moreover, the analgesia is listed as 13/30 (dose Tramadol 0 + APAP 120 mg/kg, p.o.); 10/30 (dose Tramadol 0 + APAP 160 mg/kg, p.o.); 13/25 (dose Tramadol 0 + APAP 200 mg/kg, p.o.); 14/25 (dose Tramadol 0 + APAP 240 mg/kg, p.o.); 12/15 (dose Tramadol 0 + APAP 400 mg/kg, p.o.); 13/15 (dose Tramadol 0 + APAP 800 mg/kg, p.o.).

(Values after patent USRE39221E1, “Composition comprising a tramadol material and acetaminophen and its use” (priority 1991, dated 2006).)
